# In patent US12178825B2, “Method and compositions for forming a copper-containing complex and uses thereof” (COLD SPRING HARBOR LABORATORY, priority 2017, dated 2024):
# “Also recorded” adds a separate entry of the source.
# Columns and labels:
# PTP1B-L192A/S372P = PTP1B-L192A/S372P (Homo sapiens, UniProt P18031, L192A/S372P); experiment: Phosphatase assay with MSI-1436-resistant mutant; format: biochemical; conditions: read-out: IC50 against PTP1B-L192A/S372P
# Text: All common reagents were obtained from Thermo Fisher Scientific (Waltham, MA) or Sigma-Aldrich (St. Louis, MO). Difluoro-4-methylumbelliferyl phosphate (DiFMUP) was obtained from Invitrogen (cat #D22065). Solid black 384-well plates (cat #3573) for phosphatase assays were from Corning Incorporated (Corning, NY).
# [1] = ESI-MS analysis of complex formation with zinc salts; format: binding; conditions: ZnSO4 or Zn(NO3)2, ESI-MS
# Method: Eight equivalents of M(NO3)2·xH2O or MSO4·xH2O (M=Cu, Zn) were reacted with 1 eq. of DPM-1001 (1 mM in H2O). The reaction solutions were stirred at RT, 40° C. and 80° C. for 2 h. Mass spectra were recorded on a Bruker Esquire 6000 HCT quadrupole ion trap instrument (Bruker Daltonik GmbH, Leipzig, Germany), equipped with an electrospray ionization (ESI) source. Generation of the molecular formula of the DPM-1001/Cu(II) species and the comparison between the theoretical (simulated) and the measured isotopic patterns was performed using the DataAnalysis 4.0 software (Bruker).
# [2] = test system: insulin receptor β subunit, AKT; experiment: Insulin signaling in liver of treated mice; format: in vivo
# Text: The antibodies used in the study were purchased from: Upstate Biotechnology (pTyr, catalog 05-321, clone 4G10); Invitrogen (pY1162/1163-IR-β, catalog 700393, clone 97H9L7); Santa Cruz Biotechnology Inc. (IR-β, catalog sc-711, clone C711); Cell Signaling
# Technology (JAK2, catalog 3230, clone D2E12; p-T308 AKT (catalog 13038, clone D25E6); AKT (catalog 4691, clone C67E7) and Sigma-Aldrich (actin, catalog A2228, clone AC-74).
# All protocols were approved by the Institutional Animal Use and Care Committee of Cold Spring Harbor laboratory. 10 week-old male mice fed chow diet or high-fat diet (D12492) were acclimatized for 10 days under standard conditions before experiments. Mice were injected intraperitoneally (i.p.) once daily with vehicle, 5 mg/kg of DPM-1001 intraperitoneally or orally for 50 days. Mice were euthanized after 6 h of fasting, and serum samples were collected to measure the metabolic parameters and tissue samples were collected for studying changes in signaling.
# TX mice = experiment: Tissue and fecal copper levels (ICP-MS, rhodanine staining); format: in vivo, mouse
# Method: C3He-Atp7b^tx-j were obtained from the Jackson laboratory. All animal experiments were performed according to protocols approved by the Institutional Animal Use and Care Committee of Cold Spring Harbor laboratory. Mice were injected intraperitoneally (i.p.) with vehicle, or administered DPM-1001 intraperitoneally or orally at 5 mg/kg once every third day, for over a year. At the end of the study animals were euthanized and tissue samples were removed for biochemical studies.
# Tissue samples from wild-type or TX mice treated with saline, DPM-1001 or tetrathiomolybdate was washed three times with PBS containing 1 mM EDTA (to remove nonspecifically bound copper). Then, 215 μl of concentrated nitric acid (BDH Aristar Ultra) was added to each sample and incubated overnight. Samples were boiled at 95° C. for 1 h. and approximately 150 μl of each sample was further diluted in 2 ml 2% nitric acid (made freshly from concentrated nitric acid and Milli-Q water) Samples were analyzed on a Thermo Fisher iCAP Qc ICP mass spectrometer in kinetic energy discrimination (KED) mode against a calibration curve of known copper and phosphorus concentrations, with Ga (20 μg/l, Inorganic Ventures) as an internal standard, Each experiment was carried out twice and each condition was repeated in at least triplicate.
# Liver tissues from wild-type and TX mice from untreated and DPM-1001-treated mice were sectioned and stained with H&E or rhodanine. Whole-slide, digitized images of H&E-stained tissue were captured using the Aperio ScanScope XT automated scanning system (Vista, CA). Image J software was used to quantitate rhodanine staining.
# non-TNBC cell lines = experiment: MTT cell survival, non-TNBC cell lines; format: cell-based
# Method: (§1) The MTT assay was used to evaluate cell survival in the absence and presence of different compounds. The thiazolyl blue tetrazolium bromide (MTT) was dissolved in phosphate buffered saline (PBS) at a concentration of 5 mg/ml, filtered, and stored at 4° C. About 10,000 cells were seeded into a 96-well plate and cultured in growth medium containing serum. After 24 hours, cells were treated with the indicated concentrations of DPM-1001 or DPM-1003 (0-100 uM) for 2 hrs. Following which 20 μl MTT was added into each well. An ELISA plate reader (Biotek, Winooski, Vermont, USA) was used to measure the optical density at 490 nm.
# AGS cells = experiment: Cell survival; format: cell-based
# Method: as §1
# KATOIII cells = experiment: Cell survival; format: cell-based
# Method: as §1
# MDA-MB-468 cells = experiment: Cell survival; format: cell-based
# Method: as §1
# N87 = experiment: Cell survival; format: cell-based
# Method: as §1
# NIH 3T3 cells = experiment: Cell survival; format: cell-based
# Method: as §1
# SNU116 cells = experiment: Cell survival; format: cell-based
# Method: as §1
# SNU1 = experiment: Cell survival; format: cell-based
# Method: as §1
# SNU5 cells = experiment: Cell survival; format: cell-based
# Method: as §1
# TNBC cells = experiment: Immunoblot of copper-induced signaling; format: cell-based; conditions: co-administration
# Text: Equal quantities of lysates were isolated from indicated cell lines and then resolved by SDS-PAGE and immunoblotted with one of the following primary antibodies: mouse anti-MEK1/2, rabbit anti-p-PAK1, rabbit anti-PAK1, rabbit anti-ERK1/2, rabbit anti-phospho(Ser 217/221)-MEK1/2, rabbit anti-phospho(Thr 202/Tyr 204)-ERK1/2, rabbit anti-phospho (Ser 338)-c-RAF, rabbit anti-RAF, rabbit anti-phospho (Ser 112)-BAD and rabbit anti-BAD (Cell Signaling Technology), mouse anti-β-actin (Sigma), followed by detection with one of the following horseradish peroxidase-conjugated secondary antibodies: goat anti-rabbit IgG, goat anti-mouse IgG (Invitrogen), mouse anti-rabbit light-chain-specific IgG (Jackson ImmunoResearch Laboratories) using enhanced chemiluminescence (ECL; GE Healthcare) or SuperSignal West Femto Chemiluminescent substrate (Pierce) detection reagents.
# Chain of PTP1B-L192A/S372P (P18031 whole entry L192A/S372P): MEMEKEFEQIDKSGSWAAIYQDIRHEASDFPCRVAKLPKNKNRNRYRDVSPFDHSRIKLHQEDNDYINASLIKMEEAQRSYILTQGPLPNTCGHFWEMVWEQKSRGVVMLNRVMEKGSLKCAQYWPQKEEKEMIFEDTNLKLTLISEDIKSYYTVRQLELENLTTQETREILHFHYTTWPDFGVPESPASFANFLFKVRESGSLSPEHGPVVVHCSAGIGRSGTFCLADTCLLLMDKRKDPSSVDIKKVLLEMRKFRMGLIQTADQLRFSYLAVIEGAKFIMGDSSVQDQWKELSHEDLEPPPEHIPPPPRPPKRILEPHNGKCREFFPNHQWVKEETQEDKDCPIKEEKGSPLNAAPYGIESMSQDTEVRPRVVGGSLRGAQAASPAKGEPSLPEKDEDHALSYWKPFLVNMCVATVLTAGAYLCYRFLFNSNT
compound,measurement,setting,value
COC(=O)CCC(C)C1CCC2C3C(O)CC4CC(NCCCCNCc5ccccn5)CCC4(C)C3CCC12C (stereo not drawn) [DPM-1001],IC50,PTP1B-L192A/S372P,1 µM
same,complexation with Zn(II),[1],no complexation
same,AKT phosphorylation,[2],phosphorylation of AKT; also recorded: enhanced AKT phosphorylation
same,tyrosine phosphorylation of insulin receptor β subunit,"[2]; insulin-stimulated, orally or intraperitoneally",increased insulin-stimulated insulin receptor phosphorylation; also recorded: marked increase in β-subunit phosphorylation
same,copper levels in feces,TX mice; TX mice,dramatically elevated
same,rhodanine staining of liver,TX mice; TX mice,no obvious staining for rhodanine
same,copper levels in liver and brain,"TX mice; TX mice, ICP-MS",inhibits copper accumulation in liver and brain; also recorded: lowered the levels of copper in both tissues; also recorded: as effective as tetrathiomolybdate in removing copper from the liver and brain
same,copper levels in feces,"TX mice; TX mice, listed as DMP-1001",elevated copper levels in feces
same,copper levels in kidney,"TX mice; wild-type and TX mice, ICP-MS",does not promote accumulation of copper in the kidney; also recorded: no significant differences
same,rhodanine staining of liver,TX mice; wild-type mice,No signal was detected
same,"survival of non-TNBC cell lines, DPM-1001 versus DPM-1003",non-TNBC cell lines,did not differ from each other
same,survival of AGS cells,AGS cells,inhibited survival; also recorded: inhibitory effect
same,survival of KATOIII cells,KATOIII cells,inhibited survival; also recorded: inhibitory effect
same,survival of MDA-MB-468 cells,MDA-MB-468 cells,inhibitory effect
same,survival of N87 cells,N87,inhibited survival; also recorded: inhibitory effect
same,survival of NIH 3T3 cells,NIH 3T3 cells,no effect on survival
same,survival of SNU116 cells,SNU116 cells,inhibited survival; also recorded: inhibitory effect
same,survival of SNU1 cells,SNU1,inhibited survival
same,survival of SNU5 cells,SNU5 cells,inhibited survival; also recorded: inhibitory effect
same,copper-induced increase of pS338-RAF1 and pS112-BAD,TNBC cells; 5-10 μM copper in culture media,reduced or blocked
same,copper-induced increase of phospho-PAK1,TNBC cells; copper added to culture media,blocked
